Results taken from a melting point compilation (Tetko et al.; mined from patent text by program, amines drawn as free bases though some values may be those of a salt).

Compound | melting point [°C]
CCC1=C(c2ccc(F)c(F)c2)C(=NO)CC1 | 136 to 137
COC(=O)c1ccc(NC(=O)C=C(C)c2cc(C(C)C)c(C(C)C)o2)cc1 | 167 to 169
O=C(O)c1cc(=O)c2c(O)cccc2[nH]1 | 298 to 301
CN1CCC(c2cccc3ccc(C(=O)NCCCc4ccccc4)cc23)CC1 | 47 to 50
CN(Cc1sc2c(=O)c(C(=O)NCc3ccc(Cl)cc3)cn(C)c2c1COCC[Si](C)(C)C)CC(O)c1ccc(C#N)s1 (stereo not drawn) | 152 to 154
CSc1c(-n2ccnc2)c(-c2ccc(Cl)c(Cl)c2)nn1C | 88 to 90
CS(=O)(=O)OC1CN(C(c2ccccc2)c2ccccc2)C1 | 85 to 87
CCOC(=O)c1c(C(F)(F)F)nc(C(F)F)c(C(=O)OC)c1C1CC1 | 49 to 52
Cn1ncc2c1-c1c(SC(C)(C)C)sc(C(=O)O)c1CC2 | 277 to 278
CO/C=C(/C(=O)OC)c1ccccc1Oc1cc(N)ncn1 | 158 to 160
CCOC(=O)C1=C(C)NC(O)(C(F)(F)F)C(C(=O)OCC)C1c1cccc([N+](=O)[O-])c1 (stereo not drawn) | 120 to 121
Cc1nc(/C=C/c2ccc3ccccc3n2)cc(-n2nc(C)nc2C)n1 | 153 to 155
C/C(=N\O)c1cccc(NC(=O)NCC(=O)N2[C@@H](C(=O)OC(C)(C)C)CC[C@H]2c2ccccc2)c1 (racemic) | 118
CN1NN=C(NC(=O)c2cccc3cccnc23)N1 | 222 to 223
CC1(C)OC(=S)Nc2ccc(Br)cc21 | 221 to 222
CC(CNC(=O)CN1CCCC1=O)N1CCN(C)CC1 (stereo not drawn) | 84 to 85
S=C(CCC(c1ccccc1)(c1ccccc1)c1ccccc1)Oc1c(Cl)c(Cl)c(Cl)c(Cl)c1Cl | 154 to 156
CCc1[nH]n(C2CCCC2)c2nc(-c3ccnc4ccccc34)nc(=O)c1-2 | 205 to 206
CC(C)(C)C1Cc2cc(OCC(=O)O)c(Cl)c(Cl)c2C1=O (stereo not drawn) | 155 to 175
CC(C)Oc1ccc(CCCCC2OC(=O)NC2=O)cc1 (stereo not drawn) | 81 to 82
COc1cc(C(F)(F)F)nn1-c1ccc(NC(=O)c2ccccc2F)cc1 | 167 to 168
CC(=O)Nc1cccnc1NC(=O)C(C)(C)Oc1cccc(Cl)n1 | 185
COc1ccc(C2(O)CCCCC2=O)c(OC)c1OC (stereo not drawn) | 88 to 91
Cn1nnnc1CN1C2CCC1CC(Oc1ccc(Cl)c(Cl)c1)C2 (stereo not drawn) | 119 to 120
COCc1c(-c2ccon2)ncc2[nH]c3ccc(OCc4ccccc4)cc3c12 | 123 to 126

Compound | melting point [°C]
Cc1cccnc1NN | 119
OC1(c2cccs2)C(c2ccccc2Cl)SC2=NCCCCN21 (stereo not drawn) | 120 to 122
CS(=O)(=O)CC(N)C1(c2ccc(Cl)cc2)CCC1 (stereo not drawn) | 134 to 135
N#Cc1ccc(NCc2cccc(F)c2)cc1 | 63 to 64
CS(=O)(=O)c1ccc(-c2cnn(-c3ccc(F)c(F)c3)c(=O)c2-c2ccc(Cl)cc2)cc1 | 187 to 188
CNC(=O)N(O)CCNC(=O)c1ccc2ccccc2n1 | 158 to 159
COc1cc(C2CCN(C[C@H](O)CO)CC2)ccc1Nc1ncc2ccc(-c3ccccc3OC)n2n1 | 66 to 80
Cc1nc2cnccc2n1-c1ccc(OCc2cccc(SCc3nc4cc(F)ccc4s3)c2)cc1 | 119 to 121
CC1(C)C(NN)=Nc2ccccc2C1(O)c1ccccc1 (stereo not drawn) | 195 to 196
Cc1nnc(-c2ccnc(NCc3cccc(C(F)(F)F)c3)c2)o1 | 141 to 142
O=C1C(=O)c2ccccc2C2=C1SCC1(CCN(C(=O)c3ccccc3I)CC1)O2 | 165 to 166
O=C1CCn2c3c(c4cccc1c42)CCN(C(=O)c1ccccc1)CC3 | 178 to 181
Nc1ccc(/C=C/c2ccccc2)nc1 | 159 to 160
Fc1ccc(C2=NOC(CN=C=S)C2)cc1 (stereo not drawn) | 59 to 61
CCCc1cn(C(CC)C(=O)N(C)C)nc1-c1ccccc1 (stereo not drawn) | 63 to 65.5
O=C(O)CCSC(c1ccccc1)(c1ccccc1)c1ccccc1 | 205 to 208
COc1ccc(N(C(C)C)S(=O)(=O)c2ccc(C)cc2)c([N+](=O)[O-])c1 | 148 to 150
CC(C)n1c2cc(C(F)(F)F)ccc2c2oc(C(=O)Cl)cc21 | 128 to 129
CCOCc1nc2c(N)nc3cc(OCCN)ccc3c2n1CC(C)(C)O | 163 to 165
CC(=O)OCC1OC(n2cc(C)c(=O)[nH]c2=O)CC1N=[N+]=[N-] (stereo not drawn) | 96 to 98
CC(=O)NC[C@H]1CN(c2ccc(N3CC(N(C)CCF)C3)c(F)c2)C(=O)O1 | 126 to 127
O=C1c2ccccc2CN1CCC#Cc1ccccn1 | 94 to 98
Cn1cc2c(nc(NC(=O)Nc3ccc(CC(=O)NCCOCCOCCNC(=O)OC(C)(C)C)cc3)n3nc(-c4ccco4)nc23)n1 | 157 to 165
Cc1nc2cnccc2n1-c1ccc(C2=Nc3ccccc3N(C)C(=O)C2)cc1 | 147
CC(C)C(NS(=O)(=O)c1ccc(Cl)s1)c1ncnn1Cc1ccccc1 (stereo not drawn) | 138 to 139

Compound | melting point [°C]
COC(=O)C#CC1CCC2C3CCC4CC(O)CCC4(C)C3CCC12C (stereo not drawn) | 135 to 137
COC(=O)c1ccc(O)c(C2CCCC2)c1 | 114 to 116
O=C(O)CCNC(=O)C(=Cc1ccc(Oc2ccccc2)cc1)CS | 108
CC(=O)OCC(=O)c1ccc(C)cc1 | 85
COc1c(Br)ccc2oc(COc3ccc(-c4ccc(S(=O)(=O)NC(C(=O)O)C(C)C)cc4)cc3)c(C)c12 (stereo not drawn) | 198 to 200
Cc1ccc(Nc2c(F)cccc2C(F)(F)F)c(CC(=O)O)c1 | 155 to 156
O=C(NCCN1CCCCC1)Nc1ccc(-c2cnc(COCc3cc4ccccc4o3)o2)cc1 | 102 to 104
O=S(=O)(NCCCCl)c1ccc(Nc2ncnc3cc(Cl)ccc23)cc1 | 168 to 171
c1ccc(C(c2ccccc2)N2CC2)cc1 | 56 to 58
CCOc1cc(CF)nc2nc(S(=O)(=O)Nc3c(Cl)ccc(C)c3Cl)nn12 | 197 to 200
OCCn1cc(-c2ccc3nnn(Cc4ccc(F)cc4)c3n2)cn1 | 204 to 206
CCCCc1ccc(S(=O)(=O)Nc2cc(C)on2)s1 | 96.5 to 101
CNc1nc(-c2ccc(F)cc2)cc(C(C)C)n1 | 75 to 76
COCC(=O)NCC1CCC(Nc2nc3c(s2)CCCc2ccc(F)cc2-3)CC1 (stereo not drawn) | 63 to 65
CCN1c2ncccc2C(=O)N(C)c2ccc(-c3cnn(CC)c3)nc21 | 60 to 62
CC(=O)N1CCC(NC(=O)Nc2ccccc2CCc2cc(C(C)(C)C)c(O)c(C(C)(C)C)c2)CC1 | 218 to 221
O=C(Nc1ccc(CN2C(=O)[C@H]3CCC[C@H]3N(C(=O)CN3C(=O)c4ccccc4C3=O)c3ccccc32)cc1)OCc1ccccc1 (relative stereo) | 144 to 147
COc1cc([N+](=O)[O-])c(CC(=O)O)c(Cl)c1O | 231
CCOc1nc(Cl)ncc1F | 30 to 32
CC(C)O[Si](C)(CCl)c1ccc(-c2ccccc2)cc1 (stereo not drawn) | 35 to 38
CNCC(O)c1cc(OC)c(O)c(OC)c1 (stereo not drawn) | 175
Nc1ncc(-c2ccncn2)c(-c2ccco2)n1 | 222
CC(=O)c1ccc(C(=O)O)o1 | 189 to 195
